Values of other authors as cited in patent US20190224051A1, “ETNESS INDICATOR WITH HARDENERS AND CRYSTALLIZERS” (The Procter & Gamble Company, priority 2018, published 2019).

Conditions: Table 2, stabilizers

**Q.** Which results are given for `O=P(O)(O)OP(=O)(O)O` [Pyrophosphoric Acid]?
**A.** pKa (1): 1.5; pKa (2): 2.4; pKa (4): 9.2
